{"source": "paper PMC13276840", "about": "“Deacetylation of β‑Mannans by Two Complementary Carbohydrate Esterases from the Human Gut Microbe Bacteroides cellulosilyticus” (Biochemistry, 2026)", "key": {"BcCE25": {"target": "T1, BcCE25 (Bacteroides cellulosilyticus, UniProt E2NCW7)", "T1 construct": "gene BACCELL_02125; N-terminal signal peptide removed, His tag (removal not mentioned), pET30a(+), synthetic gene, E. coli BL21 STAR", "T1 sequence (E2NCW7 20-263)": "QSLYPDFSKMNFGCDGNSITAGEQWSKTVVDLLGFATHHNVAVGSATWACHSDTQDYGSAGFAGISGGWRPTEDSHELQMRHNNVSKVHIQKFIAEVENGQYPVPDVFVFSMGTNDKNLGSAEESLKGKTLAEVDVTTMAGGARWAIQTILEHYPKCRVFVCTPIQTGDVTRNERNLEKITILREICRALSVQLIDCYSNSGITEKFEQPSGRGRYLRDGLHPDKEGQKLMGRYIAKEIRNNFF", "assay": "transacetylation, MALDI-ToF MS and NMR", "type": "biochemical", "conditions": "acyl acceptor with vinyl acetate donor, 200 nM enzyme, 10 mM sodium phosphate pH 5.9, 25 °C"}, "BcCE7": {"target": "T2, BcCE7 (Bacteroides cellulosilyticus, UniProt E2NDM1)", "T2 construct": "gene BACCELL_02381; N-terminal signal peptide removed, His tag (removal not mentioned), pET28a(+), synthetic gene, E. coli BL21 STAR", "T2 sequence (E2NDM1 7-414 limits assumed)": "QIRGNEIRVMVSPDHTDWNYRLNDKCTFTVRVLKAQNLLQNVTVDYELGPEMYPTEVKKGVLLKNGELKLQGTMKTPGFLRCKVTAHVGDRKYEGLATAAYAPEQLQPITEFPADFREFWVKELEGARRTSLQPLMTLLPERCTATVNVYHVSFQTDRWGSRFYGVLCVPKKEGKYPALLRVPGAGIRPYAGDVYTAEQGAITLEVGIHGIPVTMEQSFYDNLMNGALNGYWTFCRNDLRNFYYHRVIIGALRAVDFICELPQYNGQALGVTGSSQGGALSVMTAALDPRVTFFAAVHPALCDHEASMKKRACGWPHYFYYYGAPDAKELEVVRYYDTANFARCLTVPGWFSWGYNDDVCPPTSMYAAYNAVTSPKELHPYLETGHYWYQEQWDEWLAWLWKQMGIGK", "assay": "transacetylation, MALDI-ToF MS", "type": "biochemical", "conditions": "acyl acceptor with vinyl acetate donor, […] enzyme, […] sodium phosphate pH […] °C"}}}
{"smiles": "OC[C@H]1O[C@@H](O[C@H]2[C@H](O)[C@H](O)[C@H](O[C@H]3[C@H](O)[C@H](O)[C@H](O[C@H]4[C@H](O)[C@H](O)C(O)O[C@@H]4CO)O[C@@H]3CO)O[C@@H]2CO)[C@@H](O)[C@@H](O)[C@@H]1O", "note": "(some centres unmarked) [mannotetraose]", "values": [{"measurement": "transacetylation, MALDI-ToF MS and NMR", "setting": "BcCE25", "value": "BcCE25 transferred up to three acetylations"}, {"measurement": "transacetylation, MALDI-ToF MS", "setting": "BcCE7", "value": "On mannotetraose, BcCE7 transferred mainly one acetyl group"}]}
